# Tested on: 422866-222-R5-J1-PDC spheroids with HUVEC/MSC, viability
# Experiment: Anticancer human tumor 422866-222-R5-J1-PDC patient-derived pancreatic adenocarcinoma cell line growth inhibition [GQUAD]
# Conditions: for IC50: curve of first compound; for viability, T/C: stronger effect = lower value
# Source text: DNA G-quadruplex Stabilizer Agents in Combinations in Complex Spheroids
# A high-throughput screen of multi-cell type tumor spheroids was designed to identify active combinations of DNA G-quadruplex stabilizer agents and targeted small molecules. Complex spheroids include a stromal component modeled by human endothelial cells (HUVEC) and fibroblasts modeled by human mesenchymal stem cells (MSCs). The concentration ranges selected for each drug and investigational agent were based upon clinically achievable concentrations if the clinical Cmax of the agent was known.
# Compounds. The drugs and investigational agents: pidnarulex (CX-5461; NSC782164), APTO-253 (NSC789042), BRACO-19 (NSC847499), peposertib (NSC802822), ceralasertib (NSC780249), elimusertib (NSC800525), camonsertib (NSC841442), AZD-1390 (NSC803789), olaparib (NSC753686), talazoparib (NSC767125), ART-558 (NSC835418), sotorasib (NSC818433), MRTX-1133 (NSC836407), SN-38 (NSC673596), topotecan (NSC609699), etoposide (NSC141540), doxorubicin (NSC123127), gemcitabine (NSC613327), 5-fluorouracil (NSC19893), paclitaxel (NSC125973), vemurafenib (NSC761431), panobinostat (NSC761190), R-306465 (JNJ-16241199; NSC773264), adavosertib (NSC754352), TP-3654 (NSC805149), carboplatin (NSC241240), KSQ-4279 (NSC840948), and staurosporine (NSC755774) were obtained from the National Cancer Institute (NCI) Developmental Therapeutics Program Chemical Repository (34). The FDA-approved anticancer drug set is available from the NCI Developmental Therapeutics Program. […] The stock solutions were prepared in dimethyl sulfoxide (DMSO, Sigma-Aldrich, St. Louis, MO, cat. D2650) at 800-fold the tested concentration and stored at -70 degrees C prior to their use. All drugs and investigational agents were tested over a range starting from a high concentration at or near the clinical Cmax and decreasing in half-log increments. If the clinical Cmax for an agent had not been determined, the highest concentration tested was 10 microM.
# 2.3 Cell Culture. All cells were maintained in an incubator at 37 degrees C and 5% CO2 with 95% humidity. The PDC lines were cultured according to standard operating procedures established by the NCI PDMR. All PDCs were thawed and cultured in Matrigel-coated flasks prepared with a working solution of 1X Ham's F-12 nutrient mix, without supplementation (Invitrogen, cat. 11765054), 100 U/mL penicillin-streptomycin (Invitrogen, cat. 15140122), and 2.5% Matrigel (Corning Inc., cat. 354248) for the first three passages. The 857933-349-R-J2-PDC line was cultured in 6C/Colon 1B media, which includes advanced DMEM/F-12 (Thermo Fisher Scientific, cat. 12634028), 10 mM HEPES (Thermo Fisher Scientific, cat. 15630080), 1X GlutaMAX supplement (Thermo Fisher Scientific, cat. 35050061), 0.1 mg/mL primocin (InvivoGen, cat. ant-pm-2), 10% defined fetal bovine serum, heat inactivated (HyClone Laboratories Inc., cat. SH30070.03HI), 50% L-WRN conditioned media (ATCC, cat. CRL-3276), 1.25 mM N-Acetyl-L-cysteine (Sigma-Aldrich, cat. A9165), 10 mM nicotinamide (Sigma-Aldrich, cat. N0636), 1X B-27 supplement (Thermo Fisher Scientific, cat. 17504044), 1X N-2 supplement (Thermo Fisher Scientific, cat. 17502048), 10 microM Y-27632 dihydrochloride (Tocris Bioscience, cat. 1254), and 50 ng/mL human EGF recombinant protein (Thermo Fisher Scientific, cat. PHG0311). The 485176-168-R4-J1-PDC line was cultured in Panc media, which includes all 6C/Colon 1B media components plus 100 ng/mL human FGF-10 (Thermo Fisher Scientific, cat. 100-26), 500 nM SB-431542 (Selleckchem, cat. S1067), and gastrin (Tocris, cat. 3006).
# […]
# 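Further: spheroids exposed to compounds for seven days before reading.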
# 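Wherever viability, T/C is given: percent viability relative to DMSO vehicle control taken as 100%.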
smiles,measurement,setting,value
CC(C)(O)C1CCC(Nc2ccc3ncc(-c4cccc(C(F)(F)F)c4)n3n2)CC1 (configuration not stated) + Cc1[nH]c2ccc(F)cc2c1-c1nc2c3cccnc3c3ncccc3c2[nH]1,IC50,second compound 0.0316 µM,1110 nM
same,IC50,second compound 0.1 µM,833 nM
same,IC50,second compound 0.316 µM,1120 nM
same,IC50,second compound 1 µM,1490 nM
same,IC50,second compound 3.16 µM,421 nM
same,IC50,second compound 10 µM,531 nM
same,"viability, T/C","second compound 0.0316 µM, first compound 0.0316 µM",99.4%
same,"viability, T/C","second compound 0.0316 µM, first compound 0.1 µM",79.8%
same,"viability, T/C","second compound 0.0316 µM, first compound 0.316 µM",78.5%
same,"viability, T/C","second compound 0.0316 µM, first compound 1 µM",50.7%
same,"viability, T/C","second compound 0.0316 µM, first compound 3.16 µM",31.8%
same,"viability, T/C","second compound 0.0316 µM, first compound 10 µM",26.9%
same,"viability, T/C","second compound 0.1 µM, first compound 0.0316 µM",118%
same,"viability, T/C","second compound 0.1 µM, first compound 0.1 µM",103%
same,"viability, T/C","second compound 0.1 µM, first compound 0.316 µM",64.7%
same,"viability, T/C","second compound 0.1 µM, first compound 1 µM",50.9%
same,"viability, T/C","second compound 0.1 µM, first compound 3.16 µM",34.1%
same,"viability, T/C","second compound 0.1 µM, first compound 10 µM",29.8%
same,"viability, T/C","second compound 0.316 µM, first compound 0.0316 µM",103%
same,"viability, T/C","second compound 0.316 µM, first compound 0.1 µM",99.2%
same,"viability, T/C","second compound 0.316 µM, first compound 0.316 µM",80.3%
same,"viability, T/C","second compound 0.316 µM, first compound 1 µM",51.1%
same,"viability, T/C","second compound 0.316 µM, first compound 3.16 µM",36.5%
same,"viability, T/C","second compound 0.316 µM, first compound 10 µM",29.5%
same,"viability, T/C","second compound 1 µM, first compound 0.0316 µM",87.1%
same,"viability, T/C","second compound 1 µM, first compound 0.1 µM",88.4%
same,"viability, T/C","second compound 1 µM, first compound 0.316 µM",77.6%
same,"viability, T/C","second compound 1 µM, first compound 1 µM",55.4%
same,"viability, T/C","second compound 1 µM, first compound 3.16 µM",38.9%
same,"viability, T/C","second compound 1 µM, first compound 10 µM",27.1%
same,"viability, T/C","second compound 3.16 µM, first compound 0.0316 µM",56%
same,"viability, T/C","second compound 3.16 µM, first compound 0.1 µM",63.5%
same,"viability, T/C","second compound 3.16 µM, first compound 0.316 µM",52.4%
same,"viability, T/C","second compound 3.16 µM, first compound 1 µM",39.3%
same,"viability, T/C","second compound 3.16 µM, first compound 3.16 µM",37.8%
same,"viability, T/C","second compound 3.16 µM, first compound 10 µM",29%
same,"viability, T/C","second compound 10 µM, first compound 0.0316 µM",66.3%
same,"viability, T/C","second compound 10 µM, first compound 0.1 µM",68.3%
same,"viability, T/C","second compound 10 µM, first compound 0.316 µM",62%
same,"viability, T/C","second compound 10 µM, first compound 1 µM",35.1%
same,"viability, T/C","second compound 10 µM, first compound 3.16 µM",33.9%
same,"viability, T/C","second compound 10 µM, first compound 10 µM",26%

# Source: PubChem BioAssay AID2060511 (Molecular Pharmacology Branch, DTP, NCI, 2025)
